Consider 19 compounds from patent US8569378B2, “p27 protein inducer” (Chugai Seiyaku Kabushiki Kaisha, priority 2007, dated 2013).

One assay concerns p27 protein. Nature of the assay: Quantification of p27 protein by ELISA (p27 protein-inducing activity, EC50). In kind it is cell-based, human. The following applies: NCI-H460 cells, 48 hours, p27 sandwich ELISA. On the procedure: The p27 protein-inducing activities of the compounds or salts listed in Tables 1-1, 1-2 and 2 below were measured as follows.
Preparation of Cell Lysate:
NCI-H460 human non-small cell lung cancer cells (ATCC HTB-177) were plated in 6-well plates at 2×10^5 cells/well and incubated overnight. Then, the test substance was added to the medium to a final concentration of 10000 nmol/L, 3000 nmol/L, 100 nmol/L, 30 nmol/L, 10 nmol/L, 3 nmol/L, 1 nmol/L, 0.3 nmol/L, 0.1 nmol/L, 0.03 nmol/L or 0.01 nmol/L and the cells were incubated at 37° C. in 5% CO2 for 48 hours. 150 μL of Cell Lysis Buffer (catalog no. 9803, Cell Signaling) which had been diluted to 1-fold concentration (1 mM PMSF was added immediately before use) was added, and the mixture was allowed to stand on ice for 10 minutes. The Cell Lysis Buffer in which cells were lysed was collected together with cells with a scraper and transferred to a new tube. It was centrifuged at 15000 rpm for 10 minutes at 4° C. and the supernatant was then transferred to a new tube.
Quantification by Sandwich ELISA:
Anti-p27 monoclonal antibody (catalog no. 71-9600, Zymed) was diluted to 5 μg/mL in 50 mM carbonate coating buffer (0.4 g/L NaCO3, 0.73 g/L NaHCO3 and 0.04 g/L NaN3 in distilled water), and it was then added at 50 μL/well and allowed to stand overnight at 4° C. to bind the antibody. After washing three times with PBS, 200 μL of blocking solution (0.2% I-Block in PBS) was added to each well. After 1 hour of incubation at room temperature, washing with PBS-T (0.05% Tween 20 in PBS) was performed three times. The sample and recombinant p27 protein standard were serially diluted in Cell Lysis Buffer (catalog no. 9803, Cell Signaling) which had been diluted to 1-fold concentration (1 mM PMSF was added immediately before use), and it was then added at 100 μL/well. After 1 hour of incubation at room temperature, washing with 200 μL of PBS-T was performed three times. HRP-labeled anti-p27 antibody (product no. 610243, BD Transdution Laboratories) was diluted 1:2500 (i.e. to 0.1 μg/mL) in 0.2% I-Block/0.05% PBS-T, and it was then added at 100 μL/well. After 1 hour of incubation at room temperature, washing with 200 μL of PBS-T was performed three times. Chromogenic substrate solution (TMB One Solution, catalog no. G7431, Promega) was added at 100 μL/well and allowed to develop a color reaction at room temperature. After stopping the reaction with 50 μL of 1N H2SO4, the absorbance at 450 nm was measured.
Calculation of EC50 Values:
A standard response curve was generated by plotting the amount of p27 protein against the concentration of the test substance. The basal level of response was defined as 0%, while the plateau level where the induction of p27 protein had been maximized was defined as 100%. Finally, the test substance concentration at which 50% induction was achieved was calculated, and it was defined as EC50.

A further assay deals with TNF-α. Nature of the assay: Measurement of TNF-α production inhibitory activity in LPS-stimulated THP-1 cells. The assay is classed as cell-based. The following applies: Homo sapiens, overnight, TNF-α in supernatant by ELISA, Table 3. On the procedure: TNF-α is an inflammatory cytokine. It plays an important role in the initiation of inflammation, particularly in rheumatism. The TNF-α production inhibitory activities of the compounds or salts listed in Table 3 below were measured as follows.
THP-1 human monocytic leukemia cells (ATCC) were suspended to a cell density of 5×10^5 cells/mL in RPMI 1640 medium supplemented with 5% inactivated fetal bovine serum, and this suspension was aliquoted into a 96-well round-bottomed tissue culture plate at 0.2 mL/well. A solution of the test substance in DMSO was added to the suspension to a final concentration of […] and the mixture was subjected to pretreatment at 37° C. for 60 minutes. After pretreatment, lipopolysaccharide (LPS) from E. coli 055:B5 was added to a final concentration of […] and the mixture was incubated overnight in a 37° C., 5% CO^2 incubator. Then, the culture supernatant was collected from each well, and the concentration of TNF-α in the supernatant was determined with a human TNF-α ELISA kit (catalog no. KHC3011, BIOSOURCE) according to the manufacturer's instructions. The test substance concentration (IC50) at which 50% inhibition was achieved was calculated from the measurement.

The subject of assay [1] is type II collagen-induced arthritis. The note with it: mouse, in vivo.
Experimental: DBA/1JN mice (female, 8 weeks old, Charles River) were injected intradermally at the three sites of the base of the tail with 140 μL/mouse of a collagen gel prepared by mixing equal volumes of 0.3% aqueous bovine type II collagen solution (Collagen Technical Workshop) and complete Freund's adjuvant H37Ra (Difco). After 21 days, the mice were injected intradermally at the three sites of the back with 140 μL/mouse of a collagen gel prepared likewise. […] At every administration, the mice were treated at 0.04 mg/kg, 0.2 mg/kg, 1 mg/kg, 5 mg/kg or 25 mg/kg using 0.5% sodium carboxymethylcellulose as a vehicle. The mice treated with vehicle alone (i.e., the mice that were not treated with the test substance) were used as controls.
After the first collagen injection, arthritis score of each mouse was measured with time. The arthritis score was calculated by giving scores for both the toes and backs of all four paws of the mouse on the scale below and adding them together (the maximum possible total is 4 per paw and 16 per mouse).
Score 1: Moderate swelling

SMILES strings stand for the structures. Structures can show the parent of a compound that is named as a salt.

With `CNS(=O)(=O)Nc1cccc(Cc2c(C)c3cc(Cl)c(OC(=O)N(C)C)cc3oc2=O)c1` [Compound 1j-1-3-2, Dimethylcarbamic acid 3-(3-(N-methylsulfamoyl)aminobenzyl)-6-chloro-4-methyl-2-oxo-2H-1-benzopyran-7-yl ester], the EC50 in the assay on p27 protein (Table 1-1) is 54 nM. For the same compound, the IC50 in the assay with TNF-α amounted to 1.86 nM.

In the assay with p27 protein (Table 1-1), `Cc1c(Cc2cccc(NS(N)(=O)=O)c2F)c(=O)oc2cc(OC(=O)N(C)C)c(F)cc12` [Compound 1j-1-5-1, Dimethylcarbamic acid 3-{2-fluoro-3-(aminosulfonyl)aminobenzyl}-6-fluoro-4-methyl-2-oxo-2H-1-benzopyran-7-yl ester] registered an EC50 of 590 nM. Besides, inhibition in the assay on TNF-α was half-maximal at 0.93 nM (IC50).

The compound `CNS(=O)(=O)Nc1cc(Cc2c(C)c3ccc(OC(=O)N(C)C)cc3oc2=O)ccn1` [Compound 1j-1-10-2, Dimethylcarbamic acid 4-methyl-3-{2-(methylaminosulfonyl)-aminopyridin-4-ylmethyl}-2-oxo-2H-1-benzopyran-7-yl ester] displayed an EC50 in the assay on p27 protein (Table 1-2) of 370 nM. For the same compound, the IC50 in the assay on TNF-α was 10.3 nM.

In the assay with p27 protein (Table 1-2), `CNS(=O)(=O)Nc1cc(Cc2c(C)c3cc(F)c(OC(=O)N(C)C)cc3oc2=O)ccn1` [Compound 1j-1-11-2, Dimethylcarbamic acid 4-methyl-3-{2-(methylaminosulfonyl)aminopyridin-4-ylmethyl}-6-fluoro-2-oxo-2H-1-benzopyran-7-yl ester] gave an EC50 of 330 nM. This compound showed an IC50 with TNF-α of 5.19 nM.

In the assay on p27 protein (Table 2), `Cc1c(Cc2cccc(NS(N)(=O)=O)c2F)c(=O)oc2cc(Oc3ncccn3)ccc12` [Compound 1j-2-4-1, 3-{2-Fluoro-3-(aminosulfonyl)aminobenzyl}-4-methyl-7-(pyrimidin-2-yloxy)-2-oxo-2H-1-benzopyran] showed an EC50 of 1840 nM. This compound gave an IC50 in the assay with TNF-α of 25.9 nM.

On to `CNS(=O)(=O)Nc1cccc(Cc2c(C)c3ccc(Oc4ncccn4)cc3oc2=O)c1F` [Compound 1j-2-4-2, 3-{2-Fluoro-3-(methylaminosulfonyl)aminobenzyl}-4-methyl-7-(pyrimidin-2-yloxy)-2-oxo-2H-1-benzopyran], for which, in the assay with p27 protein (Table 2), the EC50 stood at 730 nM. Further, in the assay with TNF-α, the IC50 worked out at 15.3 nM.

Consider `CNS(=O)(=O)Nc1cccc(Cc2c(CF)c3ccc(Oc4ncccn4)cc3oc2=O)c1F` [Compound 1j-2-4-2F, 3-{2-Fluoro-3-(methylaminosulfonyl)aminobenzyl}-4-fluoromethyl-7-(pyrimidin-2-yloxy)-2-oxo-2H-1-benzopyran], for which the response in the assay on p27 protein (Table 2) was half-maximal at 530 nM (EC50). In the assay on TNF-α, the IC50 stood at 9.14 nM.

As for `CNS(=O)(=O)Nc1cccc(Cc2c(C)c3ccc(Oc4ncccn4)cc3oc2=O)c1F` [Compound 1j-2-4-2Na, 3-{2-fluoro-3-(methylaminosulfonyl)aminobenzyl}-4-methyl-7-(pyrimidin-2-yloxy)-2-oxo-2H-1-benzopyran sodium salt], in assay [1], the “type II collagen-induced arthritis (arthritis score) compared to the control group” value is “suppressed” and the “type II collagen-induced arthritis (arthritis score), dose dependence” value was “dose-dependently suppressed”.

For the compound `CNS(=O)(=O)Nc1cccc(Cc2c(C)c3cc(F)c(Oc4ncccn4)cc3oc2=O)c1F` [Compound 1j-2-5-2, 3-{2-Fluoro-3-(methylaminosulfonyl)aminobenzyl}-4-methyl-7-(pyrimidin-2-yloxy)-6-fluoro-2-oxo-2H-1-benzopyran], in the assay on p27 protein (Table 2), the EC50 is 417 nM. Further, the IC50 with TNF-α amounted to 14.9 nM.

In the assay on p27 protein (Table 1-2), `Cc1c(Cc2cccc(NS(N)(=O)=O)c2F)c(=O)oc2cc(Oc3nccs3)ccc12` [Compound 1j-3-4-1, 3-{2-Fluoro-3-(aminosulfonyl)aminobenzyl}-4-methyl-7-(thiazol-2-yloxy)-2-oxo-2H-1-benzopyran] gave an EC50 of 425 nM. Also, the IC50 in the assay with TNF-α was found to be 7.36 nM.

Regarding `CNS(=O)(=O)Nc1cccc(Cc2c(C)c3ccc(Oc4nccs4)cc3oc2=O)c1F` [Compound 1j-3-4-2, 3-{2-Fluoro-3-(methylaminosulfonyl)aminobenzyl}-4-methyl-7-(thiazol-2-yloxy)-2-oxo-2H-1-benzopyran], the EC50 in the assay on p27 protein (Table 1-2) is 267 nM. The compound also gave an IC50 in the assay on TNF-α of 1.84 nM.

Consider `CNS(=O)(=O)Nc1cccc(Cc2c(C)c3cc(C)c(Oc4nccs4)cc3oc2=O)c1` [Compound 1j-3-8-2, 3-{3-(Methylaminosulfonyl)aminobenzyl}-4-methyl-7-(thiazol-2-yloxy)-6-methyl-2-oxo-2H-1-benzopyran], for which, in the assay on p27 protein (Table 2), the midpoint of the response, the EC50, lay at 540 nM.

In the assay with p27 protein (Table 1-2), `CNS(=O)(=O)Nc1cc(Cc2c(C)c3cc(Cl)c(Oc4nccs4)cc3oc2=O)ccn1` [Compound 1j-3-12-2, 3-{2-(Methylaminosulfonyl)aminopyridin-4-ylmethyl}-4-methyl-6-chloro-7-(thiazol-2-yloxy)-2-oxo-2H-1-benzopyran] came in with an EC50 of 458 nM.

`CNS(=O)(=O)Nc1nccc(Cc2c(C)c3cc(C)c(Oc4nccs4)cc3oc2=O)c1F` [Compound 1j-3-19-2, 3-{2-(Methylaminosulfonyl)amino-3-fluoropyridin-4-ylmethyl}-4-methyl-6-methyl-7-(thiazol-2-yloxy)-2-oxo-2H-1-benzopyran] came in with an EC50 in the assay with p27 protein (Table 1-2) of 19 nM.

`CNS(=O)(=O)Nc1cc(Cc2c(C)c3cc(C)c(Oc4nccs4)cc3oc2=O)ccn1` [Compound 1j-3-20-2, 3-{2-(Methylaminosulfonyl)aminopyridin-4-ylmethyl}-4-methyl-6-methyl-7-(thiazol-2-yloxy)-2-oxo-2H-1-benzopyran] registered an EC50 in the assay with p27 protein (Table 1-2) of 100 nM.

In the assay with p27 protein (Table 1-2), `CNS(=O)(=O)Nc1nccc(Cc2c(C)c3cc(C)c(Oc4nccs4)cc3oc2=O)c1Cl` [Compound 1j-3-44-2, 3-{2-(Methylaminosulfonyl)amino-3-chloropyridin-4-ylmethyl}-4-methyl-6-methyl-7-(thiazol-2-yloxy)-2-oxo-2H-1-benzopyran] displayed an EC50 of 202 nM.

Regarding `CNC(=O)CS(=O)(=O)Nc1cccc(Cc2c(C)c3cc(Cl)c(OC(=O)N(C)C)cc3oc2=O)c1` [Compound 1o-1-3-2, Dimethylcarbamic acid 3-(3-methylcarbamoylmethanesulfonylamino-benzyl)-6-chloro-4-methyl-2-oxo-2H-1-benzopyran-7-yl ester], the EC50 in the assay with p27 protein (Table 1-1) was 290 nM.

The compound `Cc1c(Cc2cccc(NS(=O)(=O)CC(=O)N(C)C)c2)c(=O)oc2cc(OC(=O)N(C)C)c(Cl)cc12` [Compound 1o-1-3-3, Dimethylcarbamic acid 3-(3-dimethylcarbamoylmethanesulfonylamino-benzyl)-6-chloro-4-methyl-2-oxo-2H-1-benzopyran-7-yl ester] registered an EC50 with p27 protein (Table 1-1) of 190 nM.

For the compound `CNC(=O)CS(=O)(=O)Nc1cccc(Cc2c(C)c3ccc(Oc4nccs4)cc3oc2=O)c1F` [Compound 1o-3-4-2, 2-{2-Fluoro-3-[4-methyl-2-oxo-7-(thiazol-2-yloxy)-2H-1-benzopyran-3-ylmethyl]phenylsulfamoyl}-N-methyl-acetamide], the EC50 with p27 protein (Table 2) stood at 2660 nM.
